tested on: 475296-252-R-J1-PDC spheroid viability; experiment: Anticancer human tumor 475296-252-R-J1-PDC patient-derived rectal carcinoma cell line growth inhibition [PI3K]; conditions: second compound 0.316 µM; first compound 1 µM; active compounds read low; spheroids with HUVEC and MSC
Outline: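 Viability of mixed-cell spheroids was determined after exposure to pairwise combinations, one partner being inavolisib, alpelisib, duvelisib or copanlisib. Highest tested concentration matched clinical Cmax where known and 10 microM where not, descending in half-log steps.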
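Further: spheroids exposed to agents for seven days before readout.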

Compound	viability, T/C [%]
C#Cc1c(F)ccc2cc(O)cc(-c3ncc4c(N5CC6CCC(C5)N6)nc(OCC56CCCN5CC(F)C6)nc4c3F)c12 (configuration not stated) + CC(Nc1ncnc2nc[nH]c12)c1cc2cccc(Cl)c2c(=O)n1-c1ccccc1	73.5
C=CC(=O)N1CCN(c2nc(=O)n(-c3c(C)ccnc3C(C)C)c3nc(-c4c(O)cccc4F)c(F)cc23)C(C)C1 (configuration not stated) + CC(Nc1ncnc2nc[nH]c12)c1cc2cccc(Cl)c2c(=O)n1-c1ccccc1	96
CC(Cn1ccc(-c2ccc(C#N)c(Cl)c2)n1)NC(=O)c1cc(C(C)O)[nH]n1 (configuration not stated) + CC(Nc1ncnc2nc[nH]c12)c1cc2cccc(Cl)c2c(=O)n1-c1ccccc1	99.5
Cn1ncc(Cl)c1-c1cc(C(=O)NC(CN)Cc2cccc(F)c2)sc1Cl (configuration not stated) + CC(Nc1ncnc2nc[nH]c12)c1cc2cccc(Cl)c2c(=O)n1-c1ccccc1	65.4
Cn1nccc1Nc1nccc(-c2ccn(C(CO)c3ccc(Cl)c(F)c3)c(=O)c2)n1 (configuration not stated) + CC(Nc1ncnc2nc[nH]c12)c1cc2cccc(Cl)c2c(=O)n1-c1ccccc1	92.8

same assay, conditions: second compound 0.316 µM; first compound 3.16 µM; active compounds read low; spheroids with HUVEC and MSC

Compound	viability, T/C [%]
C#Cc1c(F)ccc2cc(O)cc(-c3ncc4c(N5CC6CCC(C5)N6)nc(OCC56CCCN5CC(F)C6)nc4c3F)c12 (configuration not stated) + CC(Nc1ncnc2nc[nH]c12)c1cc2cccc(Cl)c2c(=O)n1-c1ccccc1	66.9
C=CC(=O)N1CCN(c2nc(=O)n(-c3c(C)ccnc3C(C)C)c3nc(-c4c(O)cccc4F)c(F)cc23)C(C)C1 (configuration not stated) + CC(Nc1ncnc2nc[nH]c12)c1cc2cccc(Cl)c2c(=O)n1-c1ccccc1	106
CC(Cn1ccc(-c2ccc(C#N)c(Cl)c2)n1)NC(=O)c1cc(C(C)O)[nH]n1 (configuration not stated) + CC(Nc1ncnc2nc[nH]c12)c1cc2cccc(Cl)c2c(=O)n1-c1ccccc1	104
Cn1ncc(Cl)c1-c1cc(C(=O)NC(CN)Cc2cccc(F)c2)sc1Cl (configuration not stated) + CC(Nc1ncnc2nc[nH]c12)c1cc2cccc(Cl)c2c(=O)n1-c1ccccc1	59.8
Cn1nccc1Nc1nccc(-c2ccn(C(CO)c3ccc(Cl)c(F)c3)c(=O)c2)n1 (configuration not stated) + CC(Nc1ncnc2nc[nH]c12)c1cc2cccc(Cl)c2c(=O)n1-c1ccccc1	86.9

same assay, conditions: second compound 0.316 µM; first compound 10 µM; active compounds read low; spheroids with HUVEC and MSC

Compound	viability, T/C [%]
C#Cc1c(F)ccc2cc(O)cc(-c3ncc4c(N5CC6CCC(C5)N6)nc(OCC56CCCN5CC(F)C6)nc4c3F)c12 (configuration not stated) + CC(Nc1ncnc2nc[nH]c12)c1cc2cccc(Cl)c2c(=O)n1-c1ccccc1	47.3
C=CC(=O)N1CCN(c2nc(=O)n(-c3c(C)ccnc3C(C)C)c3nc(-c4c(O)cccc4F)c(F)cc23)C(C)C1 (configuration not stated) + CC(Nc1ncnc2nc[nH]c12)c1cc2cccc(Cl)c2c(=O)n1-c1ccccc1	116
CC(Cn1ccc(-c2ccc(C#N)c(Cl)c2)n1)NC(=O)c1cc(C(C)O)[nH]n1 (configuration not stated) + CC(Nc1ncnc2nc[nH]c12)c1cc2cccc(Cl)c2c(=O)n1-c1ccccc1	89.7
Cn1ncc(Cl)c1-c1cc(C(=O)NC(CN)Cc2cccc(F)c2)sc1Cl (configuration not stated) + CC(Nc1ncnc2nc[nH]c12)c1cc2cccc(Cl)c2c(=O)n1-c1ccccc1	57.6
Cn1nccc1Nc1nccc(-c2ccn(C(CO)c3ccc(Cl)c(F)c3)c(=O)c2)n1 (configuration not stated) + CC(Nc1ncnc2nc[nH]c12)c1cc2cccc(Cl)c2c(=O)n1-c1ccccc1	65.5

same assay, conditions: second compound 1 µM; first compound 0.0316 µM; active compounds read low; spheroids with HUVEC and MSC

Compound	viability, T/C [%]
C#Cc1c(F)ccc2cc(O)cc(-c3ncc4c(N5CC6CCC(C5)N6)nc(OCC56CCCN5CC(F)C6)nc4c3F)c12 (configuration not stated) + CC(Nc1ncnc2nc[nH]c12)c1cc2cccc(Cl)c2c(=O)n1-c1ccccc1	100
C=CC(=O)N1CCN(c2nc(=O)n(-c3c(C)ccnc3C(C)C)c3nc(-c4c(O)cccc4F)c(F)cc23)C(C)C1 (configuration not stated) + CC(Nc1ncnc2nc[nH]c12)c1cc2cccc(Cl)c2c(=O)n1-c1ccccc1	95.3
CC(Cn1ccc(-c2ccc(C#N)c(Cl)c2)n1)NC(=O)c1cc(C(C)O)[nH]n1 (configuration not stated) + CC(Nc1ncnc2nc[nH]c12)c1cc2cccc(Cl)c2c(=O)n1-c1ccccc1	94.4
Cn1ncc(Cl)c1-c1cc(C(=O)NC(CN)Cc2cccc(F)c2)sc1Cl (configuration not stated) + CC(Nc1ncnc2nc[nH]c12)c1cc2cccc(Cl)c2c(=O)n1-c1ccccc1	87.5
Cn1nccc1Nc1nccc(-c2ccn(C(CO)c3ccc(Cl)c(F)c3)c(=O)c2)n1 (configuration not stated) + CC(Nc1ncnc2nc[nH]c12)c1cc2cccc(Cl)c2c(=O)n1-c1ccccc1	97.8

same assay, conditions: second compound 1 µM; first compound 0.1 µM; active compounds read low; spheroids with HUVEC and MSC

Compound	viability, T/C [%]
C#Cc1c(F)ccc2cc(O)cc(-c3ncc4c(N5CC6CCC(C5)N6)nc(OCC56CCCN5CC(F)C6)nc4c3F)c12 (configuration not stated) + CC(Nc1ncnc2nc[nH]c12)c1cc2cccc(Cl)c2c(=O)n1-c1ccccc1	85.5
C=CC(=O)N1CCN(c2nc(=O)n(-c3c(C)ccnc3C(C)C)c3nc(-c4c(O)cccc4F)c(F)cc23)C(C)C1 (configuration not stated) + CC(Nc1ncnc2nc[nH]c12)c1cc2cccc(Cl)c2c(=O)n1-c1ccccc1	97.2
CC(Cn1ccc(-c2ccc(C#N)c(Cl)c2)n1)NC(=O)c1cc(C(C)O)[nH]n1 (configuration not stated) + CC(Nc1ncnc2nc[nH]c12)c1cc2cccc(Cl)c2c(=O)n1-c1ccccc1	94.4
Cn1ncc(Cl)c1-c1cc(C(=O)NC(CN)Cc2cccc(F)c2)sc1Cl (configuration not stated) + CC(Nc1ncnc2nc[nH]c12)c1cc2cccc(Cl)c2c(=O)n1-c1ccccc1	74.7
Cn1nccc1Nc1nccc(-c2ccn(C(CO)c3ccc(Cl)c(F)c3)c(=O)c2)n1 (configuration not stated) + CC(Nc1ncnc2nc[nH]c12)c1cc2cccc(Cl)c2c(=O)n1-c1ccccc1	97.7

same assay, conditions: second compound 1 µM; first compound 0.316 µM; active compounds read low; spheroids with HUVEC and MSC

Compound	viability, T/C [%]
C#Cc1c(F)ccc2cc(O)cc(-c3ncc4c(N5CC6CCC(C5)N6)nc(OCC56CCCN5CC(F)C6)nc4c3F)c12 (configuration not stated) + CC(Nc1ncnc2nc[nH]c12)c1cc2cccc(Cl)c2c(=O)n1-c1ccccc1	71.1
C=CC(=O)N1CCN(c2nc(=O)n(-c3c(C)ccnc3C(C)C)c3nc(-c4c(O)cccc4F)c(F)cc23)C(C)C1 (configuration not stated) + CC(Nc1ncnc2nc[nH]c12)c1cc2cccc(Cl)c2c(=O)n1-c1ccccc1	91.8
CC(Cn1ccc(-c2ccc(C#N)c(Cl)c2)n1)NC(=O)c1cc(C(C)O)[nH]n1 (configuration not stated) + CC(Nc1ncnc2nc[nH]c12)c1cc2cccc(Cl)c2c(=O)n1-c1ccccc1	89.5
Cn1ncc(Cl)c1-c1cc(C(=O)NC(CN)Cc2cccc(F)c2)sc1Cl (configuration not stated) + CC(Nc1ncnc2nc[nH]c12)c1cc2cccc(Cl)c2c(=O)n1-c1ccccc1	58.2
Cn1nccc1Nc1nccc(-c2ccn(C(CO)c3ccc(Cl)c(F)c3)c(=O)c2)n1 (configuration not stated) + CC(Nc1ncnc2nc[nH]c12)c1cc2cccc(Cl)c2c(=O)n1-c1ccccc1	98.5

same assay, conditions: second compound 1 µM; first compound 1 µM; active compounds read low; spheroids with HUVEC and MSC

Compound	viability, T/C [%]
C#Cc1c(F)ccc2cc(O)cc(-c3ncc4c(N5CC6CCC(C5)N6)nc(OCC56CCCN5CC(F)C6)nc4c3F)c12 (configuration not stated) + CC(Nc1ncnc2nc[nH]c12)c1cc2cccc(Cl)c2c(=O)n1-c1ccccc1	70.3
C=CC(=O)N1CCN(c2nc(=O)n(-c3c(C)ccnc3C(C)C)c3nc(-c4c(O)cccc4F)c(F)cc23)C(C)C1 (configuration not stated) + CC(Nc1ncnc2nc[nH]c12)c1cc2cccc(Cl)c2c(=O)n1-c1ccccc1	92.1
CC(Cn1ccc(-c2ccc(C#N)c(Cl)c2)n1)NC(=O)c1cc(C(C)O)[nH]n1 (configuration not stated) + CC(Nc1ncnc2nc[nH]c12)c1cc2cccc(Cl)c2c(=O)n1-c1ccccc1	98.7
Cn1ncc(Cl)c1-c1cc(C(=O)NC(CN)Cc2cccc(F)c2)sc1Cl (configuration not stated) + CC(Nc1ncnc2nc[nH]c12)c1cc2cccc(Cl)c2c(=O)n1-c1ccccc1	60.5
Cn1nccc1Nc1nccc(-c2ccn(C(CO)c3ccc(Cl)c(F)c3)c(=O)c2)n1 (configuration not stated) + CC(Nc1ncnc2nc[nH]c12)c1cc2cccc(Cl)c2c(=O)n1-c1ccccc1	89.2

same assay, conditions: second compound 1 µM; first compound 3.16 µM; active compounds read low; spheroids with HUVEC and MSC

Compound	viability, T/C [%]
C#Cc1c(F)ccc2cc(O)cc(-c3ncc4c(N5CC6CCC(C5)N6)nc(OCC56CCCN5CC(F)C6)nc4c3F)c12 (configuration not stated) + CC(Nc1ncnc2nc[nH]c12)c1cc2cccc(Cl)c2c(=O)n1-c1ccccc1	57.9
C=CC(=O)N1CCN(c2nc(=O)n(-c3c(C)ccnc3C(C)C)c3nc(-c4c(O)cccc4F)c(F)cc23)C(C)C1 (configuration not stated) + CC(Nc1ncnc2nc[nH]c12)c1cc2cccc(Cl)c2c(=O)n1-c1ccccc1	106
CC(Cn1ccc(-c2ccc(C#N)c(Cl)c2)n1)NC(=O)c1cc(C(C)O)[nH]n1 (configuration not stated) + CC(Nc1ncnc2nc[nH]c12)c1cc2cccc(Cl)c2c(=O)n1-c1ccccc1	113
Cn1ncc(Cl)c1-c1cc(C(=O)NC(CN)Cc2cccc(F)c2)sc1Cl (configuration not stated) + CC(Nc1ncnc2nc[nH]c12)c1cc2cccc(Cl)c2c(=O)n1-c1ccccc1	55.6
Cn1nccc1Nc1nccc(-c2ccn(C(CO)c3ccc(Cl)c(F)c3)c(=O)c2)n1 (configuration not stated) + CC(Nc1ncnc2nc[nH]c12)c1cc2cccc(Cl)c2c(=O)n1-c1ccccc1	93.6

same assay, conditions: second compound 1 µM; first compound 10 µM; active compounds read low; spheroids with HUVEC and MSC

Compound	viability, T/C [%]
C#Cc1c(F)ccc2cc(O)cc(-c3ncc4c(N5CC6CCC(C5)N6)nc(OCC56CCCN5CC(F)C6)nc4c3F)c12 (configuration not stated) + CC(Nc1ncnc2nc[nH]c12)c1cc2cccc(Cl)c2c(=O)n1-c1ccccc1	43.8
C=CC(=O)N1CCN(c2nc(=O)n(-c3c(C)ccnc3C(C)C)c3nc(-c4c(O)cccc4F)c(F)cc23)C(C)C1 (configuration not stated) + CC(Nc1ncnc2nc[nH]c12)c1cc2cccc(Cl)c2c(=O)n1-c1ccccc1	93.5
CC(Cn1ccc(-c2ccc(C#N)c(Cl)c2)n1)NC(=O)c1cc(C(C)O)[nH]n1 (configuration not stated) + CC(Nc1ncnc2nc[nH]c12)c1cc2cccc(Cl)c2c(=O)n1-c1ccccc1	90.2
Cn1ncc(Cl)c1-c1cc(C(=O)NC(CN)Cc2cccc(F)c2)sc1Cl (configuration not stated) + CC(Nc1ncnc2nc[nH]c12)c1cc2cccc(Cl)c2c(=O)n1-c1ccccc1	62.1
Cn1nccc1Nc1nccc(-c2ccn(C(CO)c3ccc(Cl)c(F)c3)c(=O)c2)n1 (configuration not stated) + CC(Nc1ncnc2nc[nH]c12)c1cc2cccc(Cl)c2c(=O)n1-c1ccccc1	59.1

same assay, conditions: second compound 3.16 µM; first compound 0.0316 µM; active compounds read low; spheroids with HUVEC and MSC

Compound	viability, T/C [%]
C#Cc1c(F)ccc2cc(O)cc(-c3ncc4c(N5CC6CCC(C5)N6)nc(OCC56CCCN5CC(F)C6)nc4c3F)c12 (configuration not stated) + CC(Nc1ncnc2nc[nH]c12)c1cc2cccc(Cl)c2c(=O)n1-c1ccccc1	102
C=CC(=O)N1CCN(c2nc(=O)n(-c3c(C)ccnc3C(C)C)c3nc(-c4c(O)cccc4F)c(F)cc23)C(C)C1 (configuration not stated) + CC(Nc1ncnc2nc[nH]c12)c1cc2cccc(Cl)c2c(=O)n1-c1ccccc1	96.2
CC(Cn1ccc(-c2ccc(C#N)c(Cl)c2)n1)NC(=O)c1cc(C(C)O)[nH]n1 (configuration not stated) + CC(Nc1ncnc2nc[nH]c12)c1cc2cccc(Cl)c2c(=O)n1-c1ccccc1	95.1
Cn1ncc(Cl)c1-c1cc(C(=O)NC(CN)Cc2cccc(F)c2)sc1Cl (configuration not stated) + CC(Nc1ncnc2nc[nH]c12)c1cc2cccc(Cl)c2c(=O)n1-c1ccccc1	87
Cn1nccc1Nc1nccc(-c2ccn(C(CO)c3ccc(Cl)c(F)c3)c(=O)c2)n1 (configuration not stated) + CC(Nc1ncnc2nc[nH]c12)c1cc2cccc(Cl)c2c(=O)n1-c1ccccc1	97.4

same assay, conditions: second compound 3.16 µM; first compound 0.1 µM; active compounds read low; spheroids with HUVEC and MSC

Compound	viability, T/C [%]
C#Cc1c(F)ccc2cc(O)cc(-c3ncc4c(N5CC6CCC(C5)N6)nc(OCC56CCCN5CC(F)C6)nc4c3F)c12 (configuration not stated) + CC(Nc1ncnc2nc[nH]c12)c1cc2cccc(Cl)c2c(=O)n1-c1ccccc1	88.6
C=CC(=O)N1CCN(c2nc(=O)n(-c3c(C)ccnc3C(C)C)c3nc(-c4c(O)cccc4F)c(F)cc23)C(C)C1 (configuration not stated) + CC(Nc1ncnc2nc[nH]c12)c1cc2cccc(Cl)c2c(=O)n1-c1ccccc1	92.9

— PubChem BioAssay AID1963980 (Molecular Pharmacology Branch, DTP, NCI, 2024)
